This passage reports IC50 results from US11427558B1, “Indazoles and azaindazoles as LRRK2 inhibitors” (ESCAPE Bio, Inc., priority 2019, dated 2022).

Experiment [1] addresses Recombinant wild type LRRK2 protein (Homo sapiens (Human), UniProt Q5S007). Nature of the experiment: LRRK2 kinase activity, LanthaScreen TR-FRET assay (wild type). The format is biochemical. As to conditions: LRRKtide 400 nM, 25 μM ATP, 60 min; read-out: LRRK2 WT IC50. The gist of the method: (§1)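 Recombinant human wild-type or G2019S LRRK2 phosphorylated fluorescein-labelled LRRKtide (ERM-based) with ATP and serially diluted compound for 60 min at room temperature.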
In general terms: Time-resolved FRET reads energy transfer from a long-lived donor to a nearby acceptor.

Experiment [2] deals with Recombinant G2019S-LRRK2 protein (Homo sapiens (Human), UniProt Q5S007, G2019S). Nature of the experiment: LRRK2 kinase activity, LanthaScreen TR-FRET assay (G2019S). In kind it is biochemical. The following applies: LRRKtide 400 nM, 25 μM ATP, 60 min. The gist of the method: as §1

Usually IC50 stands for the concentration that gives 50% inhibition.

Chain of Recombinant wild type LRRK2 protein (Q5S007 whole entry): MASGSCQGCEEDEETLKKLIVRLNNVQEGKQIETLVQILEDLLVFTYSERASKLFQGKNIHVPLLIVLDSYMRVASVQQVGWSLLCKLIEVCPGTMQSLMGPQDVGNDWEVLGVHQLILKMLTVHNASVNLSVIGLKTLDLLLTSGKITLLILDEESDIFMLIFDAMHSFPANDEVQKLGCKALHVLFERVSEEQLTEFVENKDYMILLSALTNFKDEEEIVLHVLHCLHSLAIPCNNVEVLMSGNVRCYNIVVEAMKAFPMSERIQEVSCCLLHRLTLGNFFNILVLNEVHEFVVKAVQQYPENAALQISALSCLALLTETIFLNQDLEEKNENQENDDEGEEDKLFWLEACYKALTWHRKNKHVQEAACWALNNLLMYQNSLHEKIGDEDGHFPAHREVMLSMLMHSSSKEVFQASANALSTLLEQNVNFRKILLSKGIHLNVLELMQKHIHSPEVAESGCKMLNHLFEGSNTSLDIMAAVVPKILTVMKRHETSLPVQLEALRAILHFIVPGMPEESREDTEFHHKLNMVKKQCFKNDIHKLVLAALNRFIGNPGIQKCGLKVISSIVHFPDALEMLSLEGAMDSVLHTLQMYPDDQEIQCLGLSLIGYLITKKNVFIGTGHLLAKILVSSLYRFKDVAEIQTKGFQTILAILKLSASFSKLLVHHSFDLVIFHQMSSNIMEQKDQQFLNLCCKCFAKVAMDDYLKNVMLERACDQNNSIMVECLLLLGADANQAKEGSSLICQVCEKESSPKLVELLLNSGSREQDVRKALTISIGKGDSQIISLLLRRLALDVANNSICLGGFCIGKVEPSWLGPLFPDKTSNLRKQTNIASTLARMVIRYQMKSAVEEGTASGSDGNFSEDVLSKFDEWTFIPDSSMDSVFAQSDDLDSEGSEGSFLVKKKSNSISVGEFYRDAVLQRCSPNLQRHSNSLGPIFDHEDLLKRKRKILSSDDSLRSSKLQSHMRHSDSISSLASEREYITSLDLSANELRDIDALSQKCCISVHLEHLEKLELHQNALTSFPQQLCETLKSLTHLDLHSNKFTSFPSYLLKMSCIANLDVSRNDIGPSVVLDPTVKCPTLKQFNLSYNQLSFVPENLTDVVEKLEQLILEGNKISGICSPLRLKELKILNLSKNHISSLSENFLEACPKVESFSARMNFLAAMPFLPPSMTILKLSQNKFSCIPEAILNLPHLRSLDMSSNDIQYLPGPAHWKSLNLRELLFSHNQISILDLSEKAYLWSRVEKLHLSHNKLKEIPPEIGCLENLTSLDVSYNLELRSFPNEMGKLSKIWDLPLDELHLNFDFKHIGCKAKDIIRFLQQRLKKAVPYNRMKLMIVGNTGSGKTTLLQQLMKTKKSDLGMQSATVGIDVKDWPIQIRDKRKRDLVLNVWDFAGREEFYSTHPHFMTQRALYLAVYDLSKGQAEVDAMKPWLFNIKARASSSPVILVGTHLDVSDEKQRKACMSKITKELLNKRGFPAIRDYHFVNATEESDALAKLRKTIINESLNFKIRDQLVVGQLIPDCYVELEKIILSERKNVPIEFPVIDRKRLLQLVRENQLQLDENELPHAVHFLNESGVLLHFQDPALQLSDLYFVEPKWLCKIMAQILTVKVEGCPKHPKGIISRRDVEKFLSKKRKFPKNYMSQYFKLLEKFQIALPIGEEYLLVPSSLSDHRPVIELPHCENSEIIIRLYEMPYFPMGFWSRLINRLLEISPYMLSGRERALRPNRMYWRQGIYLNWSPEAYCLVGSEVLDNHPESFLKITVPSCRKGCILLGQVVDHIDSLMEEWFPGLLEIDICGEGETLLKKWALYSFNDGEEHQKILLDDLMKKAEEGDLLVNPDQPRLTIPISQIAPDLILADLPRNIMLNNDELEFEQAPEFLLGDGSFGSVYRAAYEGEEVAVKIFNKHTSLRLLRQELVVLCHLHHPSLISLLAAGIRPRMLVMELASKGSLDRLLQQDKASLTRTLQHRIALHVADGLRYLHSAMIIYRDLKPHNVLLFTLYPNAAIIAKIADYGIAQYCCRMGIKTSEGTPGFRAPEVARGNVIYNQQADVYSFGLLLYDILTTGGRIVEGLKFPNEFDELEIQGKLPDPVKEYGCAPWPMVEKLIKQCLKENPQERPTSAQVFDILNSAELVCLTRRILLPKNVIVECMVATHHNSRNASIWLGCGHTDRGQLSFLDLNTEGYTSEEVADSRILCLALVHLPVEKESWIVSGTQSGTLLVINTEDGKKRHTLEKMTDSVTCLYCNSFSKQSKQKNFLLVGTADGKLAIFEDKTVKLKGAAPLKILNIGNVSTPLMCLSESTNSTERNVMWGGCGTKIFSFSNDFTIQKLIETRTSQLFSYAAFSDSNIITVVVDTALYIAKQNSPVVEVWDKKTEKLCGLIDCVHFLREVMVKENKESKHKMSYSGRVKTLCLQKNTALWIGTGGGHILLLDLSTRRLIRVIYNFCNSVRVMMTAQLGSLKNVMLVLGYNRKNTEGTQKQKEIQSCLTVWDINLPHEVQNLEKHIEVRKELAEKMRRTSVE
Chain of Recombinant G2019S-LRRK2 protein (Q5S007 whole entry G2019S): as the sequence (Q5S007 whole entry) above, with G2019S counted along it

Regarding `N#Cc1cncc(C(=O)Nc2ccc3[nH]nc(-c4ccncc4)c3c2)c1` [Example 24, 5-Cyano-N-(3-(pyridin-4-yl)-1H-indazol-5-yl)nicotinamide], the IC50 in experiment [1] and in experiment [2] was 100 to 1000 nM each time.

As for `Cc1c(C(=O)Nc2ccc3[nH]nc(C(F)F)c3c2)nc(Cl)c(C#N)c1C` [Example 291, 6-Chloro-5-cyano-N-(3-(difluoromethyl)-1H-indazol-5-yl)-3,4-dimethylpicolinamide], the half-maximal inhibitory concentration (IC50) in experiment [1] and in experiment [2] was < 100 nM throughout.

With `N#Cc1ncc(C(=O)Nc2ccc3[nH]nc(-c4ccncc4)c3c2)cn1` [Example 25, 2-Cyano-N-(3-(pyridin-4-yl)-1H-indazol-5-yl)pyrimidine-5-carboxamide], the half-maximal inhibitory concentration (IC50) in experiment [1] and in experiment [2] was 100 to 1000 nM throughout.

For `CCc1cc(-c2n[nH]c3ccc(NC(=O)c4ncc(C#N)c(C)c4C)cc23)ccn1` [Example 279, 5-Cyano-N-(3-(2-ethylpyridin-4-yl)-1H-indazol-5-yl)-3,4-dimethylpicolinamide], the IC50 in experiment [1] and in experiment [2] was < 100 nM in each case.

Regarding `N#Cc1cnc(C(=O)Nc2ccc3[nH]nc(-c4ccoc4)c3c2)c(O)c1` [Example 154, 5-Cyano-N-(3-(furan-3-yl)-1H-indazol-5-yl)-3-hydroxypicolinamide], the IC50 in experiment [1] was 100 to 1000 nM; in experiment [2], < 100 nM.

On to `COc1c(C#N)cnc(C(=O)Nc2ccc3[nH]nc(-c4cnoc4)c3c2)c1C` [Example 226, 5-Cyano-N-(3-(isoxazol-4-yl)-1H-indazol-5-yl)-4-methoxy-3-methylpicolinamide], for which the half-maximal inhibitory concentration (IC50) in experiment [1] and in experiment [2] was < 100 nM throughout.

`Cc1coc(-c2n[nH]c3ccc(NC(=O)c4ncc(C#N)c(C)c4C)cc23)n1` [Example 197, 5-Cyano-3,4-dimethyl-N-(3-(4-methyloxazol-2-yl)-1H-indazol-5-yl)picolinamide]: the figures for the half-inhibitory concentration (IC50) in experiment [1] and in experiment [2] were 100 to 1000 nM and < 100 nM, respectively.

Turning to `Cc1ccc(-c2n[nH]c3ccc(NC(=O)c4ncc(C#N)cc4C)cc23)cn1` [Example 55, 5-Cyano-3-methyl-N-(3-(6-methylpyridin-3-yl)-1H-indazol-5-yl)picolinamide], the IC50 is 100 to 1000 nM in experiment [1] and < 100 nM in experiment [2].

As for `C/C=C/c1n[nH]c2ccc(NC(=O)c3nc(Cl)c(C#N)c(C)c3C)cc12` [Example 282, (E)-6-chloro-5-cyano-3,4-dimethyl-N-(3-(prop-1-en-1-yl)-1H-indazol-5-yl)picolinamide], the 50% inhibitory concentration (IC50) in experiment [1] and in experiment [2] was < 100 nM in each case.

For the compound `COc1c(C#N)cccc1C(=O)Nc1ccc2[nH]nc(-c3ccoc3)c2c1` [Example 72, 3-Cyano-N-(3-(furan-3-yl)-1H-indazol-5-yl)-2-methoxybenzamide], the IC50 in experiment [1] and in experiment [2] was < 100 nM throughout.

Regarding `N#Cc1ccnc(C(=O)Nc2ccc3[nH]nc(-c4ccoc4)c3c2)n1` [Example 132, 4-Cyano-N-(3-(furan-3-yl)-1H-indazol-5-yl)pyrimidine-2-carboxamide], the 50% inhibitory concentration (IC50) in experiment [1] and in experiment [2] was < 100 nM throughout.

Turning to `Cc1cc(C#N)cnc1C(=O)Nc1ccc2[nH]nc(-c3cn(C)nn3)c2c1` [Example 241, 5-Cyano-3-methyl-N-(3-(1-methyl-1H-1,2,3-triazol-4-yl)-1H-indazol-5-yl)picolinamide], the 50% inhibitory concentration (IC50) in experiment [1] and in experiment [2] was 100 to 1000 nM each time.

Consider `N#Cc1cccc(C(=O)Nc2ccc3[nH]nc(-c4cnoc4)c3c2)c1Cl` [Example 220, 2-Chloro-3-cyano-N-(3-(isoxazol-4-yl)-1H-indazol-5-yl)benzamide], for which the half-inhibitory concentration (IC50) in experiment [1] and in experiment [2] was < 100 nM each time.

As for `Cc1c(C#N)cnc(C(=O)Nc2ccc3[nH]nc(-c4ccoc4)c3c2)c1C` [Example 67, 5-Cyano-N-(3-(furan-3-yl)-1H-indazol-5-yl)-3,4-dimethylpicolinamide], the IC50 in experiment [1] and in experiment [2] was < 100 nM each time.

As for `COc1cccc(-c2n[nH]c3ccc(NC(=O)c4ncc(C#N)cc4C)cc23)c1` [Example 53, 5-Cyano-N-(3-(3-methoxyphenyl)-1H-indazol-5-yl)-3-methylpicolinamide], the IC50 in experiment [1] was 100 to 1000 nM; in experiment [2], < 100 nM.

`Cc1c(C#N)cnc(C(=O)Nc2ccc3[nH]nc(-c4cnoc4)c3c2)c1C` [Example 168, 5-Cyano-N-(3-(isoxazol-4-yl)-1H-indazol-5-yl)-3,4-dimethylpicolinamide]: the IC50 in experiment [1] and in experiment [2] was < 100 nM each time.

In the case of `Cc1c(C#N)cnc(C(=O)Nc2ccc3[nH]nc(-c4cn(C)nn4)c3c2)c1C` [Example 240, 5-Cyano-3,4-dimethyl-N-(3-(1-methyl-1H-1,2,3-triazol-4-yl)-1H-indazol-5-yl)picolinamide], the half-inhibitory concentration (IC50) in experiment [1] was 100 to 1000 nM; in experiment [2], < 100 nM.

As for `Cc1c(C(=O)Nc2ccc3[nH]nc(C4CC4)c3c2)nc(Cl)c(C#N)c1C` [Example 303, 6-Chloro-5-cyano-N-(3-cyclopropyl-1H-indazol-5-yl)-3,4-dimethylpicolinamide], the half-maximal inhibitory concentration (IC50) in experiment [1] and in experiment [2] was < 100 nM in each case.

For `N#Cc1ccc(C(=O)Nc2ccc3[nH]nc(-c4ccoc4)c3c2)c(C(F)(F)F)c1` [Example 6, 4-Cyano-N-(3-(furan-3-yl)-1H-indazol-5-yl)-2-(trifluoromethyl)benzamide], the IC50 in experiment [1] and in experiment [2] was < 100 nM each time.

Turning to `Cc1cc(C#N)cnc1C(=O)Nc1ccc2[nH]nc(-c3cccc(N4C[C@@H](C)O[C@@H](C)C4)c3)c2c1` [Example 119, 5-Cyano-N-(3-(3-((2S,6R)-2,6-dimethylmorpholino)phenyl)-1H-indazol-5-yl)-3-methylpicolinamide], the half-maximal inhibitory concentration (IC50) in experiment [1] is 100 to 1000 nM; in experiment [2], < 100 nM.

As to `C/C=C/c1n[nH]c2ccc(NC(=O)c3ncc(C#N)c(C)c3C)cc12` [Example 245, (E)-5-cyano-3,4-dimethyl-N-(3-(prop-1-en-1-yl)-1H-indazol-5-yl)picolinamide], the IC50 in experiment [1] is 100 to 1000 nM; in experiment [2] it was < 100 nM.

`N#Cc1cc(F)c(C(=O)Nc2ccc3[nH]nc(-c4ccoc4)c3c2)c(F)c1` [Example 7, 4-Cyano-2,6-difluoro-N-(3-(furan-3-yl)-1H-indazol-5-yl)benzamide]: the IC50 in experiment [1] and in experiment [2] was < 100 nM each time.

In the case of `Cc1c(C#N)cnc(C(=O)Nc2ccc3[nH]nc(C=C4CCNCC4)c3c2)c1C` [Example 260, 5-Cyano-3,4-dimethyl-N-(3-(piperidin-4-ylidenemethyl)-1H-indazol-5-yl)picolinamide], the half-inhibitory concentration (IC50) in experiment [1] was > 10000 nM; in experiment [2], 1000 to 10000 nM.

On to `Cc1cc(C#N)cnc1C(=O)Nc1ccc2[nH]nc(-c3cnn(C)c3)c2c1` [Example 57, 5-Cyano-3-methyl-N-(3-(1-methyl-1H-pyrazol-4-yl)-1H-indazol-5-yl)picolinamide], for which the IC50 in experiment [1] and in experiment [2] was < 100 nM throughout.

Take `COc1c(C#N)cnc(C(=O)Nc2ccc3[nH]nc(-c4cnco4)c3c2)c1C` [Example 211, 5-Cyano-4-methoxy-3-methyl-N-(3-(oxazol-5-yl)-1H-indazol-5-yl)picolinamide]: the half-maximal inhibitory concentration (IC50) in experiment [1] and in experiment [2] was < 100 nM each time.

On to `COc1c(C#N)ccc(C)c1C(=O)Nc1ccc2[nH]nc(-c3cnco3)c2c1` [Example 234, 3-Cyano-2-methoxy-6-methyl-N-(3-(oxazol-5-yl)-1H-indazol-5-yl)benzamide], for which the IC50 in experiment [1] and in experiment [2] was < 100 nM in each case.

Take `Cc1c(C(=O)Nc2ccc3[nH]nc(-c4ccccc4)c3c2)nc(C#N)n1C` [Example 104, 2-Cyano-1,5-dimethyl-N-(3-phenyl-1H-indazol-5-yl)-1H-imidazole-4-carboxamide]: the IC50 in experiment [1] and in experiment [2] was 100 to 1000 nM in each case.

Regarding `COc1cc(-c2n[nH]c3ccc(NC(=O)c4ncc(C#N)cc4C)cc23)ccn1` [Example 48, 5-Cyano-N-(3-(2-methoxypyridin-4-yl)-1H-indazol-5-yl)-3-methylpicolinamide], the half-maximal inhibitory concentration (IC50) is 100 to 1000 nM in experiment [1] and < 100 nM in experiment [2].

On to `C=C(C)c1cc(C#N)cnc1C(=O)Nc1ccc2[nH]nc(-c3cnco3)c2c1` [Example 250, 5-Cyano-N-(3-(oxazol-5-yl)-1H-indazol-5-yl)-3-(prop-1-en-2-yl)picolinamide], for which the IC50 in experiment [1] and in experiment [2] was < 100 nM in each case.

With `N#Cc1ccnc(C(=O)Nc2ccc3[nH]nc(-c4ccncc4)c3c2)c1` [Example 23, 4-Cyano-N-(3-(pyridin-4-yl)-1H-indazol-5-yl)picolinamide], the IC50 in experiment [1] was 100 to 1000 nM; in experiment [2], < 100 nM.

For the compound `N#Cc1ccc(F)c(C(=O)Nc2ccc3[nH]nc(-c4ccoc4)c3c2)c1F` [Example 120, 3-Cyano-2,6-difluoro-N-(3-(furan-3-yl)-1H-indazol-5-yl)benzamide], the half-inhibitory concentration (IC50) in experiment [1] and in experiment [2] was < 100 nM in each case.

For `N#Cc1cccc(C(=O)Nc2ccc3[nH]nc(-c4ccncc4)c3c2)c1` [Example 21, 3-Cyano-N-(3-(pyridin-4-yl)-1H-indazol-5-yl)benzamide], the 50% inhibitory concentration (IC50) in experiment [1] and in experiment [2] was < 100 nM throughout.

In the case of `Cc1cc(C#N)cnc1C(=O)Nc1ccc2[nH]nc(-c3ccc4ocnc4c3)c2c1` [Example 71, N-(3-(Benzo[d]oxazol-5-yl)-1H-indazol-5-yl)-5-cyano-3-methylpicolinamide], the half-inhibitory concentration (IC50) is 100 to 1000 nM in experiment [1] and < 100 nM in experiment [2].

As for `Cc1cc(C#N)cnc1C(=O)Nc1ccc2[nH]nc(-c3ccccn3)c2c1` [Example 114, 5-Cyano-3-methyl-N-(3-(pyridin-2-yl)-1H-indazol-5-yl)picolinamide], the IC50 was in the range of 1000 to 10000 nM in experiment [1] and 100 to 1000 nM in experiment [2].

With `Cc1c(C#N)cnc(C(=O)Nc2ccc3[nH]nc(-c4ccnc(N5CCOCC5)c4)c3c2)c1C` [Example 277, 5-Cyano-3,4-dimethyl-N-(3-(2-morpholinopyridin-4-yl)-1H-indazol-5-yl)picolinamide], the IC50 in experiment [1] and in experiment [2] was < 100 nM in each case.
